One data set concerns UPR. Kind of data set: RNA-Seq analysis of UPR branch activation in P cells. Type of data set: cell-based, human. The note with it: BRD-4780 1 μM, THP 100 nM. The protocol:
For RNA-seq experiments, N and P cells were plated in 12-well plates at 200,000 cells/well. Subsequently, 1 μM of BRD-4780 or DMSO were applied for 24 hr followed by 12 hr exposure to 100 nM of thapsigargin (THP) or DMSO for control. At the end of the experiment, RNA was extracted from treated cells and sequencing was performed as described below.
UPR branch activation analysis is presented as boxplots. Each box of the boxplot consists of genes comprising an individual UPR branch (Adamson et al., 2016). The expression of each gene in the group is plotted as mean of the scaled expression profiles obtained from three replicates.

The next data set deals with huntingtin (97 polyQ). As to the kind of experiment: Huntingtin-GFP (97 polyQ) accumulation in HEK cells. Type of data set: cell-based, human. Particulars: 10 μM, 72 hours. The protocol:
HEK293T cells were transfected with Huntingtin 97Q repeats fused to GFP and selected in 0.8 mg/mL G418 (Thermo Fisher Scientific®).
For GFP-Huntingtin experiments (FIGS. 15G and 15H), GFP signal in each cell was calculated using the “spot” identification feature, and total spot intensity for single cells was calculated and averaged for each well.
HEK293T stably expressing huntingtin 97Q-GFP were treated with 10 μM of BRD-4780 or vehicle DMSO, then monitored for GFP intensity by live cell imaging.

Data set [1] is described as follows: Plasma protein binding (equilibrium dialysis). It is filed as in vitro ADME. A general note: In equilibrium dialysis only unbound substance equilibrates across the membrane.
Protocol: Plasma protein binding was determined by equilibrium dialysis using a Rapid Equilibrium Dialysis (RED) device (Pierce Biotechnology). Each compound was prepared in duplicate at 5 μM in plasma (0.95% acetonitrile, 0.05% DMSO) and added to one side of the membrane with PBS pH 7.4 added to the other side. Compounds were incubated at 37° C. for 5 hr with a 350 rpm orbital shake. After incubation, an aliquot was taken from each side of the membrane and quenched by adding acetontrile to a 3:1 ratio (v/v, ACN:plasma). After quenching, samples were centrifuged (32×G) to pellet precipitated particulates and an aliquot of supernatant was diluted 50/50 (v/v) with water. The resulting solution was analyzed by UPLC-MS/MS with compounds detected by MRM detection on a triple quadrupole mass spectrometer. The compound peak area on the buffer side of the membrane was compared to the peak area on the plasma side of the membrane to determine percent bound. Percent bound in plasma was calculated through the following equations: % free=[area (buffer)/area (plasma)]×100. % bound=100−% free.
Another data set has as its target T1, Nischarin (Homo sapiens, UniProt Q9Y2I1).
T1 construct: Densitometric analysis of Nischarin abundance after treatment of P cells with BRD-4780 (5 μM, 1 hour) or DMSO; endogenous in cells; host or cells: P cells
As to the kind of experiment: Cellular thermal shift assay (CETSA) for Nischarin in P cells. Type of data set: binding. The note with it: 5 μM, 1 hour. The protocol:
CETSAs were performed as previously described (Jafari et al., 2014; Reinhard et al., 2015). In brief, P cells were treated in the presence or absence of BRD-4780 for 1 hr, harvested (trypsinized), washed in PBS, resuspended in PBS (containing protease inhibitors) and distributed in 0.2 ml PCR tubes (100 μl; 600,000 cells). Cells were incubated at their designated temperatures for 3 min, then at 25° C. for 3 min and lysed by the addition of 1% NP-40. Immediately thereafter, samples were snap frozen and thawed using thermal cycler set at 25° C. Samples were spun at 20′000×g for 20 min (4° C.) to remove precipitated protein and the supernatant was analyzed by Western blot to examine the TMED9/Nischarin thermal stability.

A short description of data set [2]: Liver microsomes stability. Type of data set: in vitro ADME.
Protocol: Stability was determined at 37° C. at 1 hour in liver microsomes. Each compound was prepared in duplicate at 1 μM in liver microsomes diluted 50/50 (v/v) with PBS pH 7.4. After addition of compounds to microsome mixture, the plate was sealed and vortexed and 100 µL of each sample was added to 3004 acetonitrile (with internal standard). Assay plate was incubated at 37° C. for 1 hr with a 350 rpm orbital shake, and following the hour 1004 of each sample was added to 300 μL acetonitrile (with internal standard). After quenching, samples were refrigerated for at least 1 hour. The samples were centrifuged (32×G) to pellet precipitated particulates and an aliquot of supernatant was diluted 50/50 (v/v) with water. The resulting solution was analyzed by UPLC-MS/MS with compounds detected by MRM detection on a triple quadrupole mass spectrometer. The compound peak areas in the 0 and 1 hour samples, -NADPH sample, and no compound control sample were compared to determine a percent remaining. Percent remaining in microsomes was calculated through the following equation: % remaining=[area (1 hr)/area (0 hr)]×100. (LC System, Waters Acquity I-Class; MS System, AB Sciex Triple Quad 4500; Column, Waters Acquity UPLC BEH C18, 1.7 μm, 2.1×50 mm; Mobile Phase A, Water with 0.1% formic acid; Mobile Phase B, Acetonitrile with 0.1% formic acid; Flow Rate, 0.90 mL/min; Column Temperature, 55° C.).
The next data set relates to MUC1-fs. Kind of data set: MUC1-fs subcellular distribution (co-localization IF) in P cells. It is filed as cell-based, human.
The nature of data set [3]: Dose response exposure PK study in male 129-ELITE mice. Particulars: single p.o. doses. Type of data set: in vivo, mouse. The protocol:
4) A pharmacokinetic study was performed by Charles River Labs (CRL) (Worcester, Mass., USA) in fed male 129-ELITE mice (study EF-0024-DA-MI) to determine the dose response exposure of BRD-4780, BRD-1365 and BRD-7709 in plasma, kidney, liver and eye. Brain exposure to BRD-4780 at 30 mg/kg was also evaluated A single dose of BRD-4780 was administered at 30.0 mg/kg or 100 mg/kg orally (p.o) in a clear solution of 5% dextrose in water (D5W). For BRD-1365 and BRD-7709, a single dose of either compound was administered at 10.0 mg/kg, 30.0 mg/kg, 50.0 mg/kg or 100 mg/kg orally (p.o) in a clear solution of 5% dextrose in water (D5W). Blood, kidney, liver and eye tissue were collected from n=3 mice per dose group at six time points post p.o. dose administration (1, 2, 6, 10, 16 and 24 hours) with all three compounds. Brain tissue was collected from n=3 mice per dose group at six time points post p.o. dose administration (1, 2, 6, 10, 16 and 24 hours) with BRD-4780 at 30 mg/kg. Plasma obtained by centrifugation and tissue fragments were homogenized. Plasma and tissue drug concentration was determined by LC-MS/MS and reported as drug concentration in ng/mL for plasma and ng/mg for kidney, liver and eye tissue, plotted as the mean±standard deviation concentration for males for BRD-4780 ([…]), BRD-1365 (FIG. 11K) and BRD-7709 (FIG. 11M). Standard pharmacokinetic parameters were calculated for males for BRD-4780 ([…]), BRD-1365 (FIG. 11O) and BRD-7709 (FIG. 11P).

The next data set concerns Rhodopsin. Kind of data set: BRD-4780 treatment in Rho-P23H/+ mice, rhodopsin staining of retinal sections. Type of data set: in vivo, mouse. Particulars: 50 mg/Kg/day oral gavage, 28 days. The protocol:
Rhodopsin intensity was calculated in retinal sections of Rho/+ mice treated with either vehicle or BRD-4780 (FIGS. 21A and 21B), as compared to wild-type mice treated with vehicle alone. In healthy retina, Rhodopsin primarily localized to the outer segment of the photoreceptors (OS, indicated by the arrow in FIG. 21A), instead of localizing around the photoreceptor nuclei in the outer nuclear layer (ONL, indicated by an asterisk in FIG. 21A). Since there is no Rhodopsin-P23H specific antibody, the amount of Rhodopsin staining in the outer nuclear layer was calculated as a measurement of Rhodopsin accumulation in intracellular compartments. The calculated Rhodopsin staining in the ONL was normalized to the nuclear staining, to correct for differences in cell number.
The effect of BRD-4780 on Rhodopsin accumulation in intracellular compartments of mouse retinae were tested in age-matched Rho-P23H/+ and +/+ male mice. […] Animal weight was observed daily to monitor toxicity. On day 28, mice were sacrificed, and eyes were removed for further analysis.

The conditions of data set [4]: Munk et al., 1996; cited from earlier work.

Entries after “also recorded” stand apart in the source; their conditions may differ.

This is an account of results in US12023308B2, “Agents for reversing toxic proteinopathies” (THE BROAD INSTITUTE, INC., priority 2019, dated 2024).

T1 sequence (Q9Y2I1 whole entry): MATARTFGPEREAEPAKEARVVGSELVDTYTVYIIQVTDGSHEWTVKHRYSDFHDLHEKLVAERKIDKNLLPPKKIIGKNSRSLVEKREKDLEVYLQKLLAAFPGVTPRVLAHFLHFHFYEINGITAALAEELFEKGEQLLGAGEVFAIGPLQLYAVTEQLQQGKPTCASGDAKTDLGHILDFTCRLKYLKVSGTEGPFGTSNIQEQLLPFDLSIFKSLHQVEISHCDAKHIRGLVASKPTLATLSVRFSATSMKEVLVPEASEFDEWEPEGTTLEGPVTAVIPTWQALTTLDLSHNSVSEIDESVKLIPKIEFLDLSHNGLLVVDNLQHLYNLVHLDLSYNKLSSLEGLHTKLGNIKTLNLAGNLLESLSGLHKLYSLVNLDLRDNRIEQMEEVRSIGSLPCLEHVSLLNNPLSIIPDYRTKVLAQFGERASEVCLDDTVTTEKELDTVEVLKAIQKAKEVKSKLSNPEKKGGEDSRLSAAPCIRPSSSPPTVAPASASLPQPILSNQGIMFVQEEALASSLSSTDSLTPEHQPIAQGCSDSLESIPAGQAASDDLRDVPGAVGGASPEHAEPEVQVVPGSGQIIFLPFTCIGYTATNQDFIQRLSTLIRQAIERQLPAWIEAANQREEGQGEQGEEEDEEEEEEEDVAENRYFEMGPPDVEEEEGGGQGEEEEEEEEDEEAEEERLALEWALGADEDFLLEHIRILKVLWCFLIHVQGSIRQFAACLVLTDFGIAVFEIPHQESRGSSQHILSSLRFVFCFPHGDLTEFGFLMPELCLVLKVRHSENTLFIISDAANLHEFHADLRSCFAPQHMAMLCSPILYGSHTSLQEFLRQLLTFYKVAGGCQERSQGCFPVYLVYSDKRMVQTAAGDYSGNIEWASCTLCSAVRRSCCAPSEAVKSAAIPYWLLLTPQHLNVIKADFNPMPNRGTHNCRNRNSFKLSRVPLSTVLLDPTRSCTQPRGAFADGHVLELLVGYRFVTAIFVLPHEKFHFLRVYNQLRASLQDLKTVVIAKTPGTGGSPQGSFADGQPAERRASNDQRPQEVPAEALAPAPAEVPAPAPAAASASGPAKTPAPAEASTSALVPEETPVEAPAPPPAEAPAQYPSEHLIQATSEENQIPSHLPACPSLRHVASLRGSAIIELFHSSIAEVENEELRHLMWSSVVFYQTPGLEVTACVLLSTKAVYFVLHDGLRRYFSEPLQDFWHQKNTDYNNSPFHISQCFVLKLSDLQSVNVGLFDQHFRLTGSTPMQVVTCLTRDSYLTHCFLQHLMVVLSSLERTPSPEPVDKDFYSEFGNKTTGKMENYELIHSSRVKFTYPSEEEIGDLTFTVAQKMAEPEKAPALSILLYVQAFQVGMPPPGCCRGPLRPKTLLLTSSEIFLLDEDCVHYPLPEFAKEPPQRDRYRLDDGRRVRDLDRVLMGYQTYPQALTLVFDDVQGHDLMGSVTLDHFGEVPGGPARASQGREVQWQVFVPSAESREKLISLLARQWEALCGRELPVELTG
Protocol for MUC1-fs: Cell nuclei were first identified using Hoechst staining, and cell number was calculated. Cytoplasmic regions were then detected around each nucleus based on combined channels. The cells from the edge of the field were eliminated from the analysis. For the quantification of protein abundance, the total signal intensity value for each antibody was calculated separately in the cell cytoplasm and the average signal per cell was calculated for each well. For quantitation of MUC1-fs cellular distribution and trafficking, the analysis was performed as described in FIG. 13A using the “spot” identification feature for the detection of MUC1-fs and the different organelles.
Detection of MUC1-fs in P cells at baseline and following secretory pathway perturbations was performed using immunoblot and IF analyses. […] For IF experiments (FIGS. 5B-5D and 13A-13C), P cells were plated in 384-well plates at 12,000 cells/well.

Take `CC(C)[C@@H]1[C@H]2CC[C@H](C2)[C@H]1N` (racemic) [BRD-4780, 2-endo-amino-3-exo-isopropylbicyclo[2.2.1]heptane]: the UPR activation entry in the data set on UPR was “significantly reduced UPR activation”. Moreover, in the data set on huntingtin (97 polyQ), the “intracellular accumulation of GFP-tagged mutant huntingtin (97 polyQ)” value is “did not reverse or diminish the intracellular accumulation; also recorded: no effect on mutant huntingtin”. Also, in data set [1], the “protein binding (in words)” value is listed as “low protein binding”. Moreover, the “estimated percent protein bound” value in data set [1] (plasma) is 29.7%. In addition, the “Nischarin thermal stability / engagement (CETSA)” value at Nischarin is recorded as “no evidence indicative of direct engagement; also recorded: did not bind Nischarin”. For the same molecule, the microsomal stability entry in data set [2] is “good microsomal and plasma stability”. For the same molecule, the MUC1-fs subcellular distribution entry with MUC1-fs is given as “reduced in the early secretory compartment”. In addition, the “dose proportionality of AUC exposures” value in data set [3] is “not dose proportional”. Also, the “rhodopsin accumulation in intracellular compartments of retina” value with Rhodopsin is reported as “significantly reduced rhodopsin accumulation in intracellular compartments”. In [4], the “anti-hypertensive efficacy in animal studies” value was “lack of efficacy as an anti-hypertensive”.
